From patent publication US20170253581A1, “SUBSTITUTED HETEROCYCLES AS c-MYC TARGETING AGENTS” (Northwestern University, priority 2016, published 2017)

Molecular target: Myc/Max binding to DNA (Homo sapiens, UniProt P01106)
Assay: Electrophoretic mobility shift assay (EMSA) of Myc/Max binding to DNA
Type: biochemical
Conditions: EMSA, 100 uM test compound; read-out: Bound DNA (%) (100uM)
Protocol: We also tested our best hit compound Min9 (NUCC-0176234) and newly synthesized analogs for effects of these compounds on Myc/Max binding to DNA in electrophoretic mobility shift assays (EMSAs). (See FIG. 5a and FIG. 5b). We expected the active compounds to impair Myc/Max binding to DNA. Several strucutural analogs of Min9 were tested over multiple doses for inhibiting Myc-DNA binding and we observed a dose-dependent inhibition. (See FIG. 5c).
Additional compounds were synthesized and tested in the EMSA assay at concentrations of 200 μM, 100 μM, and 50 μM.

Sequence of Myc/Max binding to DNA (P01106 whole entry): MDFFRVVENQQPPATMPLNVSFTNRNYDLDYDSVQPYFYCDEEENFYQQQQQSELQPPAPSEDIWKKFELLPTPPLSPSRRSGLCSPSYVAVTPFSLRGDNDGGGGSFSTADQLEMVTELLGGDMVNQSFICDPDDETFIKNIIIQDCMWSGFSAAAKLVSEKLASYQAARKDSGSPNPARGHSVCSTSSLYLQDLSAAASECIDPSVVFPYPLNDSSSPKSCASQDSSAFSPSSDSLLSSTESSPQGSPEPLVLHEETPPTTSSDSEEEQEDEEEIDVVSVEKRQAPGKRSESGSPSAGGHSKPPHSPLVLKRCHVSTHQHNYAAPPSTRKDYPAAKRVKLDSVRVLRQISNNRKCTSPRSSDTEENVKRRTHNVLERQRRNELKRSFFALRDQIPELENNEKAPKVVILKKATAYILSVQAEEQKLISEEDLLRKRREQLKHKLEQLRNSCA

Row | remaining activity at 100 µM [%] | SMILES
1 | 33 | Oc1cc(OCc2ccc(Cl)cc2)ccc1-c1n[nH]c(C(F)(F)F)c1-c1cc(C(F)(F)F)cc(C(F)(F)F)c1 [compound 0196362]
2 | 5 | Oc1cc(OCc2ccc(Cl)cc2)ccc1-c1n[nH]c(C(F)(F)F)c1-c1ccccc1Cl [compound 0196363]
3 | 132 | Cn1nc(-c2ccc(OCc3ccc(Cl)cc3)cc2O)c(-c2cccnc2)c1C(F)(F)F [compound 0196364]
4 | 98 | Cn1nc(C(F)(F)F)c(-c2cccnc2)c1-c1ccc(OCc2ccc(Cl)cc2)cc1O [compound 0196365]
5 | 79 | Oc1cc(OCc2ccc(Cl)cc2)ccc1-c1n[nH]c(C(F)(F)F)c1-c1cccnc1 [compound 0196366]
6 | 70 | Oc1cc(OCc2ccc(Cl)cc2)ccc1-c1n[nH]cc1-c1ccccc1 [compound 0198293]
7 | 97 | Cn1cc(-c2ccccc2)c(-c2ccc(OCc3ccc(Cl)cc3)cc2O)n1 [compound 0198294]
8 | 0 | Oc1cc(OCc2ccc(Cl)cc2)ccc1-c1n[nH]c(C(F)(F)F)c1-c1ccccc1 [compound 0198295]
9 | 74 | Cn1nc(C(F)(F)F)c(-c2ccccc2)c1-c1ccc(OCc2ccc(Cl)cc2)cc1O [compound 0198296]
10 | 89 | Cn1nc(-c2ccc(OCc3ccc(Cl)cc3)cc2O)c(-c2ccccc2)c1C(F)(F)F [compound 0198297]
11 | 88 | Cc1[nH]nc(-c2ccc(OCc3ccc(Cl)cc3)cc2O)c1-c1ccccc1 [compound 0198298]
12 | 90 | Cc1nn(C)c(-c2ccc(OCc3ccc(Cl)cc3)cc2O)c1-c1ccccc1 [compound 0198299]
13 | 94 | Cc1c(-c2ccccc2)c(-c2ccc(OCc3ccc(Cl)cc3)cc2O)nn1C [compound 0198300]
14 | 105 | CCc1[nH]nc(-c2ccc(OCc3ccc(Cl)cc3)cc2O)c1-c1ccccc1 [compound 0198301]
15 | 100 | CCc1nn(C)c(-c2ccc(OCc3ccc(Cl)cc3)cc2O)c1-c1ccccc1 [compound 0198302]
16 | 105 | CCc1c(-c2ccccc2)c(-c2ccc(OCc3ccc(Cl)cc3)cc2O)nn1C [compound 0198303]
17 | 98 | COc1ccc(-c2c[nH]nc2-c2ccc(OCc3ccc(Cl)cc3)cc2O)cc1 [compound 0198304]
18 | 106 | COc1ccc(-c2cn(C)nc2-c2ccc(OCc3ccc(Cl)cc3)cc2O)cc1 [compound 0198305]
19 | 105 | COc1ccc(-c2c(C)nn(C)c2-c2ccc(OCc3ccc(Cl)cc3)cc2O)cc1 [compound 0198306]
20 | 111 | COc1ccc(-c2c(-c3ccc(OCc4ccc(Cl)cc4)cc3O)nn(C)c2C)cc1 [compound 0198307]
21 | 92 | COc1cccc(-c2c[nH]nc2-c2ccc(OCc3ccc(Cl)cc3)cc2O)c1 [compound 0198308]
22 | 2 | COc1cccc(-c2c(-c3ccc(OCc4ccc(Cl)cc4)cc3O)n[nH]c2C(F)(F)F)c1 [compound 0198309]
23 | 86 | COc1cccc(-c2c(C(F)(F)F)nn(C)c2-c2ccc(OCc3ccc(Cl)cc3)cc2O)c1 [compound 0198310]

Row | remaining activity at 100 µM [%] | SMILES
24 | 105 | COc1cccc(-c2c(-c3ccc(OCc4ccc(Cl)cc4)cc3O)nn(C)c2C(F)(F)F)c1 [compound 0198311]
25 | 104 | COc1cccc(-c2c(-c3ccc(OCc4ccc(Cl)cc4)cc3O)n[nH]c2C)c1 [compound 0198312]
26 | 105 | COc1cccc(-c2c(C)nn(C)c2-c2ccc(OCc3ccc(Cl)cc3)cc2O)c1 [compound 0198313]
27 | 104 | COc1cccc(-c2c(-c3ccc(OCc4ccc(Cl)cc4)cc3O)nn(C)c2C)c1 [compound 0198314]
28 | 105 | CCc1[nH]nc(-c2ccc(OCc3ccc(Cl)cc3)cc2O)c1-c1cccc(OC)c1 [compound 0198315]
29 | 101 | CCc1nn(C)c(-c2ccc(OCc3ccc(Cl)cc3)cc2O)c1-c1cccc(OC)c1 [compound 0198316]
30 | 126 | CCc1c(-c2cccc(OC)c2)c(-c2ccc(OCc3ccc(Cl)cc3)cc2O)nn1C [compound 0198317]
31 | 32 | Oc1cc(OCc2ccc(Cl)cc2)ccc1-c1n[nH]cc1-c1cc(C(F)(F)F)cc(C(F)(F)F)c1 [compound 0198318]
32 | 96 | Cn1cc(-c2cc(C(F)(F)F)cc(C(F)(F)F)c2)c(-c2ccc(OCc3ccc(Cl)cc3)cc2O)n1 [compound 0198319]
33 | 52 | Oc1cc(OCc2ccc(Cl)cc2)ccc1-c1n[nH]cc1-c1cccnc1 [compound 0198320]
34 | 96 | Cn1cc(-c2cccnc2)c(-c2ccc(OCc3ccc(Cl)cc3)cc2O)n1 [compound 0198321]
35 | 28 | Oc1cc(OCc2ccc(Cl)cc2)ccc1-c1n[nH]cc1-c1ccoc1 [compound 0198322]
36 | 70 | Cn1ncc(-c2ccoc2)c1-c1ccc(OCc2ccc(Cl)cc2)cc1O [compound 0198323]
37 | 80 | Cn1cc(-c2ccoc2)c(-c2ccc(OCc3ccc(Cl)cc3)cc2O)n1 [compound 0198324]
38 | 60 | Oc1cc(OCc2ccc(Cl)cc2)ccc1-c1n[nH]c(C(F)(F)F)c1-c1ccoc1 [compound 0198325]
39 | 106 | COc1cccc(-c2cn(C)nc2-c2ccc(OCc3ccc(Cl)cc3)cc2O)c1 [compound 0198326]
40 | 56 | Cc1cc(C)cc(-c2c[nH]nc2-c2ccc(OCc3ccc(Cl)cc3)cc2O)c1 [compound 0198352]
41 | 104 | Cc1cc(C)cc(-c2cn(C)nc2-c2ccc(OCc3ccc(Cl)cc3)cc2O)c1 [compound 0198353]
42 | 85 | Cc1cc(C)cc(-c2cnn(C)c2-c2ccc(OCc3ccc(Cl)cc3)cc2O)c1 [compound 0198354]
43 | 75 | Cc1ccccc1-c1c[nH]nc1-c1ccc(OCc2ccc(Cl)cc2)cc1O [compound 0198355]
44 | 118 | Cc1ccccc1-c1cn(C)nc1-c1ccc(OCc2ccc(Cl)cc2)cc1O [compound 0198356]
45 | 62 | COc1ccccc1-c1c[nH]nc1-c1ccc(OCc2ccc(Cl)cc2)cc1O [compound 0198357]
46 | 93 | COc1ccccc1-c1cn(C)nc1-c1ccc(OCc2ccc(Cl)cc2)cc1O [compound 0198358]

Row | remaining activity at 100 µM [%] | SMILES
47 | 35 | Cc1cc(C)c(-c2c[nH]nc2-c2ccc(OCc3ccc(Cl)cc3)cc2O)c(C)c1 [compound 0198359]
48 | 101 | Cc1cc(C)c(-c2cn(C)nc2-c2ccc(OCc3ccc(Cl)cc3)cc2O)c(C)c1 [compound 0198360]
49 | 87 | Cn1cc(-c2c[nH]nc2-c2ccc(OCc3ccc(Cl)cc3)cc2O)cn1 [compound 0198361]
50 | 109 | Cn1cc(-c2cn(C)nc2-c2ccc(OCc3ccc(Cl)cc3)cc2O)cn1 [compound 0198362]
51 | 4 | N#Cc1ccc(-c2c(-c3ccc(OCc4ccc(Cl)cc4)cc3O)n[nH]c2C(F)(F)F)cc1 [compound 0198391]
52 | 54 | Cn1nc(C(F)(F)F)c(-c2ccc(C#N)cc2)c1-c1ccc(OCc2ccc(Cl)cc2)cc1O [compound 0198392]
53 | 71 | Cn1nc(-c2ccc(OCc3ccc(Cl)cc3)cc2O)c(-c2ccc(C#N)cc2)c1C(F)(F)F [compound 0198393]
54 | 30 | NC(=O)c1ccc(-c2c(-c3ccc(OCc4ccc(Cl)cc4)cc3O)n[nH]c2C(F)(F)F)cc1 [compound 0198394]
55 | 109 | C/C(=N\N)c1ccc(-c2c(-c3ccc(OCc4ccc(Cl)cc4)cc3O)n[nH]c2C(F)(F)F)cc1 [compound 0198395]
56 | 56 | CN/N=C(\C)c1ccc(-c2c(C(F)(F)F)nn(C)c2-c2ccc(OCc3ccc(Cl)cc3)cc2O)cc1 [compound 0198396]
57 | 82 | CN/N=C(\C)c1ccc(-c2c(-c3ccc(OCc4ccc(Cl)cc4)cc3O)nn(C)c2C(F)(F)F)cc1 [compound 0198397]
58 | 3 | N#Cc1cccc(-c2c(-c3ccc(OCc4ccc(Cl)cc4)cc3O)n[nH]c2C(F)(F)F)c1 [compound 0198398]
59 | 2 | Cn1nc(C(F)(F)F)c(-c2cccc(C#N)c2)c1-c1ccc(OCc2ccc(Cl)cc2)cc1O [compound 0198399]
60 | 48 | Cn1nc(-c2ccc(OCc3ccc(Cl)cc3)cc2O)c(-c2cccc(C#N)c2)c1C(F)(F)F [compound 0198400]
61 | 77 | NC(=O)c1cccc(-c2c(-c3ccc(OCc4ccc(Cl)cc4)cc3O)n[nH]c2C(F)(F)F)c1 [compound 0198401]
62 | 57 | Cn1nc(C(F)(F)F)c(-c2cccc(C(N)=O)c2)c1-c1ccc(OCc2ccc(Cl)cc2)cc1O [compound 0198402]
63 | 44 | C/C(=N\N)c1cccc(-c2c(-c3ccc(OCc4ccc(Cl)cc4)cc3O)n[nH]c2C(F)(F)F)c1 [compound 0198403]
64 | 67 | CN/N=C(\C)c1cccc(-c2c(C(F)(F)F)nn(C)c2-c2ccc(OCc3ccc(Cl)cc3)cc2O)c1 [compound 0198404]
65 | 89 | CN/N=C(\C)c1cccc(-c2c(-c3ccc(OCc4ccc(Cl)cc4)cc3O)nn(C)c2C(F)(F)F)c1 [compound 0198405]
66 | 0 | CCc1ccc(Oc2c(-c3ccc(O)cc3O)n[nH]c2C(F)(F)F)cc1 [compound 0198406]
67 | 13 | Cn1nc(C(F)(F)F)c(Br)c1-c1ccc(OCc2ccc(Cl)cc2)cc1O [compound 0198407]
68 | 136 | Cn1nc(-c2ccc(OCc3ccc(Cl)cc3)cc2O)c(Br)c1C(F)(F)F [compound 0198408]
